# Peptide text beside a SMILES is read from it.
# Tests used:
# [1] = test system: mouse pancreatic islets; test: Static incubation of isolated pancreatic islets, insulin secretion; assay type: cell-based
# Procedure: Static incubation of isolated pancreatic islets. Isolation of mouse pancreatic islets was accomplished using collagenase digestion as previously described (Pontoglio et al., 1998). […] Triplicate groups of 5 islets were then incubated in borosilicate tubes containing 1 ml of KRB with the same concentration of inhibitor and various insulin secretagogues for one hour in a moving water bath at 37° C. The reaction was stopped by placing the tubes on ice and an aliquot of the buffer was removed for measurement of insulin levels. Control studies, in which the incubation mixture contained vehicle (0.1% DMSO) only, were performed using aliquots of the same batch of islets
# Assay methods. Insulin concentrations were measured by a double antibody radioimmunoassay using a rat insulin standard. The intra-assay coefficient of variation for this technique is 7%. All samples were assayed in duplicate.
# [2] = test system: islets; test: Insulin content of islets after 48 h inhibitor exposure; assay type: cell-based, mouse; conditions: 48 hours treatment
# [3] = test system: mouse islets; test: Glucose utilization and oxidation rates in islets; assay type: cell-based
# Procedure: Glucose utilization and oxidation rates. Glucose utilization and oxidation rates were measured as previously described (Dukes et al., 1998; Zhou et al., 1996) in mouse islets cultured as described above in the presence or absence of calpain inhibitors.
# [4] = test system: isolated β-cells; test: Membrane capacitance recordings (exocytosis) in isolated β-cells; assay type: cell-based, mouse
# Procedure: Isolation of pancreatic β-cells. Single β-cells were obtained from isolated islets dispersed by gentle trituration (120 strokes through a 200 μl pipette tip) in Ca^2+ and Mg^2+-free PBS containing […]. Cells were plated on glass coverslips and maintained in culture in RPMI containing 11.6 mM glucose for 48-96 hr.
# Capacitance recordings. Capacitance measurements were made with the phase-tracking technique in which a 60 mV peak-to-peak sine wave was superimposed on a holding potential of −80 mV as previously described. Conductance and capacitance values were continuously generated and recorded. The whole-cell capacitance was canceled with the slow capacitance compensation; unbalancing the slow capacitance compensation by 100 fF provided the capacitance calibration signal used to calculate changes in membrane capacitance. The sinusoidal voltage template was interrupted to deliver depolarizations to a cell. Beta cells were stimulated with a train of ten step depolarizations to +20 mV (HP=−80 mV). Each step depolarization lasted 150 ms and was separated by 400 ms interpulse duration. Capacitance measurements were carried out in the perforated whole-cell configuration. The data were collected at a 500 μsec sampling rate and filtered at 5 kHz. Recordings with series resistance >20 MΩ were discarded. Series resistance compensation was applied in all recordings.
# The recording solution for the capacitance measurements contained (in mM): 130 NaCl, 2 glucose, 10 Na-HEPES, 1 MgCl2, 2 KCl, and 5 CaCl2, pH 7.3 with NaOH. The pipette solution contained (in mM): 135 Cs-glutamate, 10 Na-HEPES, 9.5 NaCl, 0.5 TEACl, and 0.5 CaCl2, pH7.3 with CsOH. The pipettes were backfilled with an identical solution to which amphotericin B (final concentration of 0.5 mg/ml) was added and then sonicated. The amphotericin B stock solution (125 mg/ml) was kept frozen at −20° C. and used for one week. ALLM pre-treatment was as described above (see patch-clamp electrophysiology section). All electrophysiological recordings were carried out at room temperature (22-24° C.)
# [5] = test system: soleus muscle strips; test: Glycogen synthesis rates in skeletal muscle; assay type: cell-based, rat; conditions: 100 μM ALLM or 200 μM E-64-d
# Text: Glycogen synthesis rates in skeletal muscle.
# [6] = test system: mouse islets; test: Islet NAD(P)H autofluorescence response; assay type: cell-based
# Procedure: (§1) Measurement of islet [Ca^2+]i, and NAD(P)H. Islet [Ca^2+]i and NAD(P)H were measured as previously described (Pontoglio et al., 1998; Dukes et al., 1998).
# [7] = test system: rat soleus muscle strips; test: 2-Deoxyglucose uptake into soleus muscle strips; assay type: cell-based; conditions: 100 μM ALLM or 200 μM E-64-d
# Procedure: 2-Deoxyglucose uptake into skeletal muscle and adipose tissue. 2-deoxyglucose (2-DOG) uptake by isolated strips of soleus muscle from normal Wistar rats was measured using a modification of a previously described protocol (Burant et al., 1984). […] Muscles were then extracted and 2-DOG uptake calculated as previously described (Burant et al., 1984).
# [8] = test system: mouse islets; test: Measurement of islet [Ca2+]i (Fura-2); assay type: cell-based
# Procedure: as §1
# Insulin secretory responses to glucose and most other secretagogues is mediated by a rise in intracellular free calcium ([Ca^2+]i). We therefore measured [Ca^2+]i responses to glucose, KIC and KCl using Fura-2 as the Ca^2+ indicator. In comparison to the responses from the control islets, the most prominent abnormality in [Ca^2+]i responses to glucose and KIC was a delay of the [Ca^2+]i responses (FIG. 21). The mean time interval between administration of 14 mM glucose and the point of half maximal response (T1/2.) was 120±14 seconds in control islets. […] There was no delay in the appearance of [Ca^2+]i response to KCl, nor was the magnitude of the response reduced.
# [9] = test system: calpain; test: Calpain activity in mouse pancreatic islets (Boc-Leu-Met-CMAC cleavage); assay type: cell-based
compound,measurement,setting,value
"CSCC[C@@H](C=O)NC(=O)[C@H](CC(C)C)NC(=O)[C@H](CC(C)C)NC(C)=O [ALLM, N-Ac-Leu-Leu-methioninal] (Ac-Leu-Leu-Met-aldehyde)",insulin secretory response to 30 mM KCl,"[1]; 100 μM ALLM, 4 hr, 2 mM glucose",did not however significantly increase
same,insulin secretory response to 100 μM carbachol (CCh),"[1]; 100 μM ALLM, 4 hr, 8 mM glucose",did not however significantly increase
same,increase of insulin secretory response to 50 nM GLP-1,"[1]; 100 μM ALLM, 8 mM glucose",1.55±0.2 fold
same,insulin secretory response to 20 mM glucose after recovery,"[1]; 48-h treatment, then 2 days recovery without inhibitor",essentially normal insulin secretory response
same,effect on insulin secretion at 2 mM glucose,"[1]; 4 hr exposure, ALLM 250 μM, E-64-d 200 μM, 2 mM glucose",not observed
same,increase of insulin secretory response to 20 mM glucose,"[1]; 4 hr exposure, ALLM 250 μM, E-64-d 200 μM, 20 mM glucose, mean±SEM",1.97±0.3 fold
same,inhibition of 20 mM glucose-stimulated insulin secretion,"[1]; 48 h, 100 μM ALLM (so in the source), 50 μM MDL28170",88±9%
same,basal insulin secretion (2 mM glucose) vs control-treated islets,[1]; 48 hours exposure,no significant difference
same,insulin secretory response to carbachol,[1]; 48 h treated islets,attenuated
same,insulin secretory response to glyceraldehyde,[1]; 48 h treated islets,responded normally
same,insulin secretory response to mastoparan,[1]; 48 h treated islets,attenuated
same,insulin-secretory response to keto-isocaproic acid (KIC),[1]; 48 h treated islets,decreased
same,insulin secretory responses to glucose (summary statement of Example 8),"[1]; isolated mouse islets, introductory summary, no conditions given",reduces insulin secretory responses
same,concentration at which inhibition of insulin secretion was achieved (dose response),"[1]; long-term exposure, glucose stimulated insulin secretion",25 µM
same,insulin content in islets vs control islets,[2],comparable
same,rate of glucose utilization at basal glucose,"[3]; 2 mM glucose, 100 μM ALLM or 200 μM E-64-d, 4 h",14.5±3.6 pmol/islet/hr
same,rate of glucose utilization at stimulatory glucose,"[3]; 20 mM glucose, 100 μM ALLM or 200 μM E-64-d, 4 h",89.5±3.0 pmol/islet/hr
same,rate of basal glucose utilization and oxidation at 3.3 mM glucose,[3]; 48 h treated islets,no significant changes
same,rates of glycolysis and glucose oxidation at stimulating concentrations of glucose,[3]; 48 h treated islets vs controls,significantly reduced
same,glucose oxidation rate at basal glucose,"[3]; basal glucose, ALLM or E-64-d, 4 h",6.0±0.7 pmol/islet/hr
same,glucose oxidation rate at stimulatory glucose,"[3]; stimulatory glucose, ALLM or E-64-d, 4 h",39.5±4.1 pmol/islet/hr
same,rates of exocytosis in β-cells,[4]; 4 days culture with inhibitor,significantly lower rates of exocytosis
same,change in membrane capacitance elicited by train of depolarizations,"[4]; ALLM 100 μM pre-treatment, vs control cells",much larger average changes in membrane capacitance
same,magnitude of insulin-induced increase in muscle glycogen synthesis,[5]; insulin 6 nM,0.13±0.03 nmol glucose/mg/hr
same,rate of muscle glycogen synthesis with insulin,[5]; insulin 6 nM,0.40±0.05 nmol glucose/mg/hr
same,rate of muscle glycogen synthesis without insulin,[5]; no insulin,0.27±0.03 nmol glucose/mg/hr
same,NAD(P)H response to increase in glucose from 2 to 14 mM,"[6]; 100 μM ALLM or E-64-d, 4 hr preincubation",2.7±0.4 fold increase
same,NAD(P)H responses to KIC vs control,[6]; 48 h treated islets,significantly reduced
same,NAD(P)H responses to glucose vs control,[6]; 48 h treated islets,comparable
same,2-deoxyglucose uptake into soleus muscle strips with insulin,[7]; insulin 12 nM,0.34±0.05 (mol/ml H20/30 mins
same,2-deoxyglucose uptake into soleus muscle strips without insulin,[7]; no insulin,0.28±0.04 (mol/ml H20/30 mins
same,[Ca2+]i response to high glucose,"[8]; 4 hr preincubation, 14 mM glucose",not associated with increases in [Ca^2+]i
same,[Ca2+]i response to glucose ramp (2 to 26 mM over 48 mins),[8]; 48 h treated islets,diminished
same,[Ca2+]i responses to 30 mM KCl vs control,[8]; 48 h treated islets,not different
same,integrated [Ca2+]i responses (area under the curves) to glucose and KIC vs control,[8]; 48 h treated islets,significantly smaller
same,T1/2 of [Ca2+]i response to 14 mM glucose (time to half maximal response),"[8]; 48 h treated islets, control 120±14 seconds",5.32 ± 0.7 min
same,T1/2 of [Ca2+]i response to KIC,"[8]; 48 h treated islets, control 125±9",4.18 ± 0.7 min
same,area under the curve of rate of generation of fluorescent calpain product,"[9]; 200 μM inhibitor, 4 hr incubation",35±4 % of control values
same,residual calpain activity in intact islets,"[9]; 48 h treatment, 100 μM ALLM or 200 μM E-64-d",54±3 % of control treated islets

# Reference: patent publication US20060234276A1, “Methods of treatment of type 2 diabetes” (priority 1998, published 2006)
